Results on 22 compounds are retold here after patent US10040781B2, “Tank-binding kinase inhibitor compounds” (Gilead Sciences, Inc., priority 2014, dated 2018).

Where two headings read alike, the source gives them in different places.

One assay addresses IKKε (Homo sapiens (Human), UniProt Q14164). Briefly: IKKε TR-FRET enzymatic assay. The class given is biochemical. The note with it: read-out: IKKe IC50. On the technique in general: In TR-FRET formats the signal depends on donor and acceptor labels being close together.
In a further assay the target is hJAK2 (Homo sapiens (Human), UniProt O60674). Briefly: hJAK2 LANCE TR-FRET enzymatic assay. The class given is biochemical. The note with it: read-out: JAK2 IC50.
Chain of hJAK2 (O60674 whole entry): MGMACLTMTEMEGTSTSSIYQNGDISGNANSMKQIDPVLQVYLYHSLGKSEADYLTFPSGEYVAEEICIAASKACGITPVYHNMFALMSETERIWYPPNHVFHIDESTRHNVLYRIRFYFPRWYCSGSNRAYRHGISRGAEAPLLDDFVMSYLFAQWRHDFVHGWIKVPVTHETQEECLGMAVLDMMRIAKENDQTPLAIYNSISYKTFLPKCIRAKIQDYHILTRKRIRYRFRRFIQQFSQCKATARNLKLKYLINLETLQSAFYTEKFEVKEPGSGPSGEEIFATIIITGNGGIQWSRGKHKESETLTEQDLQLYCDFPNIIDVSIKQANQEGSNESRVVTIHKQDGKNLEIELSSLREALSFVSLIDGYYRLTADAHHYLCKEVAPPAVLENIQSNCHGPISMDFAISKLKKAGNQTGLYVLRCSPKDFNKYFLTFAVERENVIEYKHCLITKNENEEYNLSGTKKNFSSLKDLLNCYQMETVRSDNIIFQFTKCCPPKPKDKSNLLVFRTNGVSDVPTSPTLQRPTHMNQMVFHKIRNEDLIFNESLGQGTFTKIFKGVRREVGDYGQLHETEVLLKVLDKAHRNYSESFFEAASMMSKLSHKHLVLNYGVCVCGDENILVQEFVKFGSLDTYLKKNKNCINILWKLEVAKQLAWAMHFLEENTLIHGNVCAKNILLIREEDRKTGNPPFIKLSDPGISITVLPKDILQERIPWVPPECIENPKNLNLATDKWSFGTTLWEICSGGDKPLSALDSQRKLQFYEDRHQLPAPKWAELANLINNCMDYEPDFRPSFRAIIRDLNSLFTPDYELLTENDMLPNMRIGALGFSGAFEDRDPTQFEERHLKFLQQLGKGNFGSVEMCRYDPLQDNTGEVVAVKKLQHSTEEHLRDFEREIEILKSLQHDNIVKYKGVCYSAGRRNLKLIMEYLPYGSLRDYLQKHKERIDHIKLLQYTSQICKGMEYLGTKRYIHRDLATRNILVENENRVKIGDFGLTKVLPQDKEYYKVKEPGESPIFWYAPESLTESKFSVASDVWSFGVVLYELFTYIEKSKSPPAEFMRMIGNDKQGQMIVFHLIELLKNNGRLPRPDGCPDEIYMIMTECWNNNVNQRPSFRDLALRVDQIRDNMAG
The target in a further assay is TBK1 (Homo sapiens (Human), UniProt Q9UHD2). Briefly: TBK1 TR-FRET enzymatic assay.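 Note: phosphorylation of a biotinylated Ser/Thr peptide by purified full-length recombinant TBK1, read by TR-FRET after 240 min at 25 °C, IC50 is the geometric mean of at least four runs.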
Chain of TBK1 (Q9UHD2 whole entry): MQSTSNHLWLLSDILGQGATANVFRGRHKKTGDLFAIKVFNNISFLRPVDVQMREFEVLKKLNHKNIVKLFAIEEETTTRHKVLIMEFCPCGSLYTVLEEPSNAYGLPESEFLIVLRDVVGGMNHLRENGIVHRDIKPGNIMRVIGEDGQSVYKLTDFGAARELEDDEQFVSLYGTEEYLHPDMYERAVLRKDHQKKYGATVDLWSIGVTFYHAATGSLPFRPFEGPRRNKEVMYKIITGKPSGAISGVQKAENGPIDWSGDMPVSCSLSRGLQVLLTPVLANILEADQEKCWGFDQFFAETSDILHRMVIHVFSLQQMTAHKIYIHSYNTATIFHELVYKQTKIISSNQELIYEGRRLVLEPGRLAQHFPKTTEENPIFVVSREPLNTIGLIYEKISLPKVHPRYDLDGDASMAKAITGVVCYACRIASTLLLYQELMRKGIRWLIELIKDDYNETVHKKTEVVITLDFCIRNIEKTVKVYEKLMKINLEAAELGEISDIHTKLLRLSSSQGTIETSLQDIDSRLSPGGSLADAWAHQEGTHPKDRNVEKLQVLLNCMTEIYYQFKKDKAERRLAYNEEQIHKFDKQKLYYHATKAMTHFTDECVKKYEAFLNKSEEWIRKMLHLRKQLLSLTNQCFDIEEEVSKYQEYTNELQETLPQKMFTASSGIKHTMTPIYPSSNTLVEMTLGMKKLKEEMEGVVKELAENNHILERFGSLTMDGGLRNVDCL
[1] abbreviates: TR-FRET, 2×Km ATP, geometric mean of minimum four determinations.

Chain of IKKε (Q14164 whole entry): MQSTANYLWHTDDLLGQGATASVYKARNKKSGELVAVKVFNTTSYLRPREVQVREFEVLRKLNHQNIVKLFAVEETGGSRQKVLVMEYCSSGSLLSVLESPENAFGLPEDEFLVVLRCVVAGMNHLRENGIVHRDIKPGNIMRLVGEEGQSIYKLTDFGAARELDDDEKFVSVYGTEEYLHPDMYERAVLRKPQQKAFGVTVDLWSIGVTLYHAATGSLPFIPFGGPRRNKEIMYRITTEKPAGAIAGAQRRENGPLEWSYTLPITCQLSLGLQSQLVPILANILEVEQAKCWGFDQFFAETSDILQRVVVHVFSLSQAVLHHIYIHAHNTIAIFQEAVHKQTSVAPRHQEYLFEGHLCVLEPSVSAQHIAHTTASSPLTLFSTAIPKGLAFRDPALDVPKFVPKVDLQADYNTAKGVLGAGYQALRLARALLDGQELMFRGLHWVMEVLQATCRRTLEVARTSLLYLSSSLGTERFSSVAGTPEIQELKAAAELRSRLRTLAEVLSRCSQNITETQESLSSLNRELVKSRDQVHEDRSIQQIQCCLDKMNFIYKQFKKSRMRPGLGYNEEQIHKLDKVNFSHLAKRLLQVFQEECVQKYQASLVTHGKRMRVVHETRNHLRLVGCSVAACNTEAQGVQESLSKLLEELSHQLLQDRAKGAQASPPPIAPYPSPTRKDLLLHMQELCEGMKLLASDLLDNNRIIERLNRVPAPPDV

Take `N#Cc1cc(-c2ncnc(Nc3cn[nH]c3)n2)ccc1O[C@H]1CCN(C(=O)CO)C[C@H]1F` [Example 507, 5-(4-((1H-pyrazol-4-yl)amino)-1,3,5-triazin-2-yl)-2-(((3R,4S)-3-fluoro-1-(2-hydroxyacetyl)piperidin-4-yl)oxy)benzonitrile]: the IC50 is 2 nM at IKKε (setting [1]), 432 nM at hJAK2 and 3 nM against TBK1.
For the compound `N#Cc1cc(-c2ncnc(Nc3ccc(N4CCN(C5COC5)CC4)c(F)c3)n2)ccc1OC1CCOCC1` [Example 27, 5-(4-((3-fluoro-4-(4-(oxetan-3-yl)piperazin-1-yl)phenyl)amino)-1,3,5-triazin-2-yl)-2-((tetrahydro-2H-pyran-4-yl)oxy)benzonitrile], the IC50 on IKKε is 7 nM; on hJAK2 it was 988 nM; at TBK1, 2 nM.
On to `CNC(=O)N1CCC(Oc2ccc(-c3ncnc(Nc4ccc(N5CCN(C6COC6)CC5)cc4)n3)cc2C#N)CC1` [Example 41, 4-(2-cyano-4-(4-((4-(4-(oxetan-3-yl)piperazin-1-yl)phenyl)amino)-1,3,5-triazin-2-yl)phenoxy)-N-methylpiperidine-1-carboxamide], for which the IC50 on IKKε was 110 nM; on hJAK2 it was > 1000 nM; at TBK1, 35 nM.
For `C[C@H](O)C(=O)N1CC[C@H](Oc2ccc(-c3ncnc(Nc4ccc(N5CCN(C6COC6)CC5)c(F)c4)n3)cc2C#N)[C@H](F)C1` [Example 367, 2-(((3R,4S)-3-fluoro-1-((S)-2-hydroxypropanoyl)piperidin-4-yl)oxy)-5-(4-((3-fluoro-4-(4-(oxetan-3-yl)piperazin-1-yl)phenyl)amino)-1,3,5-triazin-2-yl)benzonitrile] the same measures were 2 nM, ≥ 1000 nM and 3 nM.
As to `C[C@H](O)C(=O)N1CC[C@H](Oc2ccc(-c3ncnc(Nc4ccc(N5CCN(C6COC6)C[C@@H]5C)cc4)n3)cc2C#N)C(F)(F)C1` [Example 252, 2-(((S)-3,3-difluoro-1-((S)-2-hydroxypropanoyl)piperidin-4-yl)oxy)-5-(4-((4-((S)-2-methyl-4-(oxetan-3-yl)piperazin-1-yl)phenyl)amino)-1,3,5-triazin-2-yl)benzonitrile], the figures for the IC50 on IKKε, on hJAK2 and on TBK1 were 1 nM, 213 nM and 3 nM, respectively.
As for `N#Cc1cc(-c2ncnc(Nc3ccc(N4CCN(C5COC5)CC4)cc3)n2)ccc1O[C@@H]1CN(C(=O)CO)CC1(F)F` (single isomer, unassigned) [Example 196], the IC50 at IKKε came to 391 nM; on hJAK2 it was 118 nM; on TBK1 it was 114 nM.
Regarding `N#Cc1cc(-c2ncnc(Nc3ccc(N4CCN(C5COC5)CC4)cc3)n2)ccc1O[C@H]1CCN(C(=O)CO)C[C@H]1C(F)(F)F` (relative stereo) [Example 439, cis-2-((1-(2-hydroxyacetyl)-3-(trifluoromethyl)piperidin-4-yl)oxy)-5-(4-((4-(4-(oxetan-3-yl)piperazin-1-yl)phenyl)amino)-1,3,5-triazin-2-yl)benzonitrile], the results for the IC50 at IKKε (setting [1]), at hJAK2 and at TBK1 were 12 nM, 21 nM and 9 nM, respectively.
For `N#Cc1cc(-c2ncnc(Nc3ccc4oc(=O)[nH]c4c3)n2)ccc1OC1CCOCC1` [Example 277, 5-(4-((2-oxo-2,3-dihydrobenzo[d]oxazol-5-yl)amino)-1,3,5-triazin-2-yl)-2-((tetrahydro-2H-pyran-4-yl)oxy)benzonitrile], the IC50 on IKKε was 47 nM; on hJAK2, ≥ 1000 nM; on TBK1, 18 nM.
Regarding `Cc1nc(C)c(Nc2ncnc(-c3ccc(O[C@H]4CCN(C(=O)[C@H](C)O)C[C@H]4F)c(C#N)c3)n2)s1` [Example 571, 5-(4-((2,4-dimethylthiazol-5-yl)amino)-1,3,5-triazin-2-yl)-2-(((3R,4S)-3-fluoro-1-((S)-2-hydroxypropanoyl)piperidin-4-yl)oxy)benzonitrile], the half-inhibitory concentration (IC50) on IKKε (setting [1]) was 11 nM; on hJAK2, ≥ 1000 nM; at TBK1, 6 nM.
As for `N#Cc1cc(-c2ncnc(Nc3ccc(N4CCN(C5COC5)CC4)cc3)n2)ccc1O[C@H]1CCN(C(=O)[C@@H]2CCCO2)C[C@H]1F` [Example 504, 2-(((3R,4S)-3-fluoro-1-((S)-tetrahydrofuran-2-carbonyl)piperidin-4-yl)oxy)-5-(4-((4-(4-(oxetan-3-yl)piperazin-1-yl)phenyl)amino)-1,3,5-triazin-2-yl)benzonitrile], the figures for the IC50 on IKKε (setting [1]), at hJAK2 and at TBK1 were 5 nM, ≥ 1000 nM and 4 nM, respectively.
`N#Cc1cc(-c2ncnc(Nc3ccc(Cn4ccnc4)cc3)n2)ccc1OC1CCOCC1` [Example 106, 5-(4-((4-((1H-imidazol-1-yl)methyl)phenyl)amino)-1,3,5-triazin-2-yl)-2-((tetrahydro-2H-pyran-4-yl)oxy)benzonitrile]: the IC50 on IKKε was 4 nM; on hJAK2, > 1000 nM; against TBK1, 5 nM.
Take `Cc1cc(Nc2ncnc(-c3ccc(O[C@H]4CCN(C(=O)[C@H](C)O)C[C@H]4F)c(C#N)c3)n2)ccc1C1CCN(C)CC1` [Example 487, 2-(((3R,4S)-3-fluoro-1-((S)-2-hydroxypropanoyl)piperidin-4-yl)oxy)-5-(4-((3-methyl-4-(1-methylpiperidin-4-yl)phenyl)amino)-1,3,5-triazin-2-yl)benzonitrile]: the concentration for half-maximal inhibition (IC50) came to 1 nM at IKKε (setting [1]), 324 nM on hJAK2 and 3 nM on TBK1.
The like results for `N#Cc1cc(-c2ncnc(Nc3ccc(N4CCN(C5COC5)CC4)cc3)n2)ccc1O[C@H]1CCN(C(=O)[C@H](O)CO)C[C@H]1F` [Example 585, 2-(((3R,4S)-1-((R)-2,3-dihydroxypropanoyl)-3-fluoropiperidin-4-yl)oxy)-5-(4-((4-(4-(oxetan-3-yl)piperazin-1-yl)phenyl)amino)-1,3,5-triazin-2-yl)benzonitrile] were, in that order, 3 nM, 294 nM and 2 nM.
In the case of `C[C@@H](O)C(=O)N1CC[C@H](Oc2ccc(-c3ncnc(Nc4ccc(N5CCN(C6COC6)CC5)cc4)n3)cc2C#N)C(F)(F)C1` (single isomer, unassigned) [Example 158], the IC50 on IKKε stood at 3 nM; on hJAK2, 171 nM; against TBK1, 1 nM.
`COc1cc(Nc2ncnc(-c3ccc(O[C@H]4CCN(C(=O)[C@H](C)O)C[C@H]4F)c(C#N)c3)n2)ccc1S(C)(=O)=O` [Example 483, 2-(((3R,4S)-3-fluoro-1-((S)-2-hydroxypropanoyl)piperidin-4-yl)oxy)-5-(4-((3-methoxy-4-(methylsulfonyl)phenyl)amino)-1,3,5-triazin-2-yl)benzonitrile]: the IC50 at IKKε (setting [1]) is 6 nM; on hJAK2, ≥ 1000 nM; against TBK1, 8 nM.
Regarding `C[C@@H](CO)C(=O)N1CC[C@H](Oc2ccc(-c3ncnc(Nc4ccc(N5CCN(C6COC6)CC5)cc4)n3)cc2C#N)[C@H](F)C1` [Example 123, 2-(((3R,4S)-3-fluoro-1-((S)-3-hydroxy-2-methylpropanoyl)piperidin-4-yl)oxy)-5-(4-((4-(4-(oxetan-3-yl)piperazin-1-yl)phenyl)amino)-1,3,5-triazin-2-yl)benzonitrile], the IC50 on IKKε was found to be 132 nM; at hJAK2 it was 546 nM; on TBK1, 31 nM.
For `CS(=O)(=O)CC(=O)N1CC[C@H](Oc2ccc(-c3ncnc(Nc4ccc(N5CCN(C6COC6)CC5)cc4)n3)cc2C#N)[C@H](F)C1` [Example 549, 2-(((3R,4S)-3-fluoro-1-(2-(methylsulfonyl)acetyl)piperidin-4-yl)oxy)-5-(4-((4-(4-(oxetan-3-yl)piperazin-1-yl)phenyl)amino)-1,3,5-triazin-2-yl)benzonitrile], the IC50 is 11 nM on IKKε (setting [1]), 179 nM on hJAK2 and 4 nM at TBK1.
In the case of `COc1cc(C#N)cc(-c2ncnc(Nc3ccc(N4CCN(C5COC5)CC4)cc3)n2)c1` [Example 105, 3-methoxy-5-(4-((4-(4-(oxetan-3-yl)piperazin-1-yl)phenyl)amino)-1,3,5-triazin-2-yl)benzonitrile], the IC50 is > 1000 nM at IKKε, 212 nM at hJAK2 and 79 nM against TBK1.
For `C[C@H]1C[C@@H](Oc2ccc(-c3ncnc(Nc4ccc(N5CCN(C6COC6)CC5)cc4)n3)cc2C#N)CCN1C(=O)CO` [Example 169, 2-(((2S,4S)-1-(2-hydroxyacetyl)-2-methylpiperidin-4-yl)oxy)-5-(4-((4-(4-(oxetan-3-yl)piperazin-1-yl)phenyl)amino)-1,3,5-triazin-2-yl)benzonitrile] the same measures were 5 nM, 230 nM and 2 nM.
Regarding `COc1cc(Nc2ncnc(-c3ccc(O[C@H]4CCN(C(=O)[C@@H](O)CO)CC4(F)F)c(C#N)c3)n2)ccn1` [Example 479, 2-(((S)-1-((S)-2,3-dihydroxypropanoyl)-3,3-difluoropiperidin-4-yl)oxy)-5-(4-((2-methoxypyridin-4-yl)amino)-1,3,5-triazin-2-yl)benzonitrile], the results for the IC50 on IKKε (setting [1]), at hJAK2 and at TBK1 were 1 nM, ≥ 1000 nM and 2 nM, respectively.
With `N#Cc1cc(-c2ncnc(Nc3ccc(N4CCN(C5COC5)CC4)cc3)n2)ccc1O[C@H]1CCN(C(=O)c2cnn[nH]2)C[C@H]1F` [Example 143, 2-(((3R,4S)-3-fluoro-1-(1H-1,2,3-triazole-5-carbonyl)piperidin-4-yl)oxy)-5-(4-((4-(4-(oxetan-3-yl)piperazin-1-yl)phenyl)amino)-1,3,5-triazin-2-yl)benzonitrile], the half-maximal inhibitory concentration (IC50) at IKKε amounted to 1 nM; on hJAK2, 84 nM; against TBK1, 2 nM.
For `Cc1ncsc1Nc1ncnc(-c2ccc(O[C@H]3CCN(C(=O)CO)C[C@H]3F)c(C#N)c2)n1` [Example 563, 2-(((3R,4S)-3-fluoro-1-(2-hydroxyacetyl)piperidin-4-yl)oxy)-5-(4-((4-methylthiazol-5-yl)amino)-1,3,5-triazin-2-yl)benzonitrile], the half-inhibitory concentration (IC50) on IKKε (setting [1]) is 3 nM; on hJAK2, ≥ 1000 nM; at TBK1, 5 nM.

As a reminder, the IC50 is the point on the concentration scale where inhibition reaches its midpoint.
